“Also recorded” adds a separate entry of the source.

The values that follow come from patent US20200000822A1, “METHODS OF TREATMENT FOR CANCER, STEROL HOMEOSTASIS, AND NEUROLOGICAL DISEASES” (BOARD OF REGENTS, THE UNIVERSITY OF TEXAS SYSTEM, priority 2017, published 2020).

The target of series [1] is T1, sigma-2 receptor (Rattus norvegicus, UniProt Q5U3Y7).
T1 construct: endogenous in cells; host or cells: PC-12 cells
T1 sequence (Q5U3Y7 1-176): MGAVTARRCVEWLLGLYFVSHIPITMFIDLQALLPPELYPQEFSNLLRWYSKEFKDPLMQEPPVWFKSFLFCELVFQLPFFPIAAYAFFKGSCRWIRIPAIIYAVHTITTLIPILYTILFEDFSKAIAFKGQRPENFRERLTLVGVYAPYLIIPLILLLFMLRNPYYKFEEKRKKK
In words: siRNA knockdown of Tmem97 in PC-12 cells, sigma-2 expression by saturating ^3H DTG binding. The series is classed as cell-based. The settings on record: compared with mRNA reduction. Here is the method:
Membranes were prepared from PC-12, MCF-7, Sf9, or Expi293 cells. In brief, adherent cells were washed with ice cold PBS or HBS and harvested with a cell scraper, while suspension cells were simply pelleted. […] Following dounce homogenization, the cells were centrifuged at 50,000×g for 20 minutes. The supernatant was discarded and the membranes were washed one more time with cold 50 mM Tris pH 8.0 containing cOmplete Mini, EDTA-free Protease Inhibitor Cocktail Tablets (Roche, 1 tablet per 50 mL buffer). The membranes were centrifuged once more at 50,000× for 20 minutes, and then resuspended in a variable volume of cold 50 mM Tris pH 8.0 with the same protease inhibitor cocktail. Protein content was assessed by DC protein assay (Bio-Rad) according to manufacturer's instructions. Membranes were aliquoted, flash frozen, and stored at -80° C. until use in the radioligand binding experiments described below. Membrane radioligand binding assays were performed as described 41 with slight modifications. […] Samples were incubated at room temperature with shaking for 1.5 hours, at which time the reaction was terminated by the addition of ice-cold water. Samples were then applied to glass fiber filters (Merck Millipore) that had been pre-treated with 0.3% (v/v) polyethylenimine. […] Radioactivity was measured by liquid scintillation counting. […]

Series [2] has as its system Tmem97 mRNA. Nature of the series: siRNA knockdown of Tmem97 in PC-12 cells, qPCR of mRNA. Format: cell-based, Rattus norvegicus. Conditions: 10 nM siRNA. The method, then: A pair of siRNA oligos were designed against Rattus norvegicus Tmem97 mRNA using the Stealth RNAi™ tool available through ThermoFisher Scientific. The sense strand for the siRNA was 5′-[…]-3′ (SEQ ID NO: 4), and the antisense strand was 5′-[…]-3′ (SEQ ID NO: 5). As a control, we used the AllStars Negative Control siRNA™ from Qiagen. For the transfection, 2.2×10^6 PC-12 cells suspended in 8.0 mL of DMEM with 10% FBS and 10 μg/mL of gentamicin were placed in a 10 cm dish and immediately transfected with a 2.0 mL solution containing 20 μL of Lipofectamine® RNAimax from ThermoFisher Scientific and 10 nM of either the control or Tmem97 siRNA. After 24 hours, the media was changed for fresh media, and the cells were transfected again in the same way. 48 hours after the first transfection, the cells were trypsinized and split 1:2 into two new 10 cm plates. On the 5th day after the first transfection, cells were harvested by trypsinization and centrifugation, and 10% were set aside for RNA extraction while 90% were used for binding analysis. […]
After preparation of the cDNA was complete, real-time quantitative PCR (qPCR) was performed on a QuantStudio 6 qPCR instrument at the Harvard Medical School Center for Molecular Interactions using PowerUp™ SYBR® Green Master Mix from Applied Biosystems Life Technologies. […] Fold differences in Tmem97 expression levels were calculated using the ΔΔCT method 43. […]

Series [3] concerns the target sigma-2 receptor (Homo sapiens, UniProt Q5BJF2). Nature of the series: ^3H DTG competition binding in MCF-7 cell membranes. The settings on record: competition with 30 nM ^3H DTG. Here is the method: Membranes were prepared from PC-12, MCF-7, Sf9, or Expi293 cells. In brief, adherent cells were washed with ice cold PBS or HBS and harvested with a cell scraper, while suspension cells were simply pelleted. Cell pellets were suspended in 20 mM HEPES pH 7.5, 2 mM magnesium chloride, and 1:100,000 (v:v) benzonase nuclease (Sigma Aldrich) and supplemented with cOmplete Mini, EDTA-free Protease Inhibitor Cocktail Tablets (Roche). Following dounce homogenization, the cells were centrifuged at 50,000×g for 20 minutes. The supernatant was discarded and the membranes were washed one more time with cold 50 mM Tris pH 8.0 containing cOmplete Mini, EDTA-free Protease Inhibitor Cocktail Tablets (Roche, 1 tablet per 50 mL buffer). […] Protein content was assessed by DC protein assay (Bio-Rad) according to manufacturer's instructions. […]
1.8 μM (+)SKF-10,047 was included to block 1l receptor sites in all MCF-7 membranes binding assays and in Sf9 membranes when testing TMEM97 ligands. […] After the membranes were transferred to the filters and washed, the filters were soaked in 5 mL Cytoscint scintillation fluid overnight and radioactivity was measured using a Beckman Coulter LS 6500 scintillation counter. Data were analyzed using software from Graphpad Prism. […]

In series [4] the target is T2, human TMEM97 (Homo sapiens, UniProt Q5BJF2).
T2 construct: made in house; host or cells: Sf9 insect cells (baculovirus, pVL1392, BestBac)
Nature of the series: ^3H DTG competition binding in Sf9 insect membranes overexpressing TMEM97. Conditions: competition with 30 nM ^3H DTG. The method, then:
For insect cell expression, human TMEM97 was cloned into the vector pVL1392, and baculovirus was prepared using the BestBac system (Expression Systems) in accordance with manufacturer's instructions. For large scale production, Sf9 insect cells were infected at a density of 4×10^6 cells/mL and then shaken at 27° C. for 60 hours prior to harvest.
Membranes were prepared from PC-12, MCF-7, Sf9, or Expi293 cells. In brief, adherent cells were washed with ice cold PBS or HBS and harvested with a cell scraper, while suspension cells were simply pelleted. Cell pellets were suspended in 20 mM HEPES pH 7.5, 2 mM magnesium chloride, and 1:100,000 (v:v) benzonase nuclease (Sigma Aldrich) and supplemented with cOmplete Mini, EDTA-free Protease Inhibitor Cocktail Tablets (Roche). Following dounce homogenization, the cells were centrifuged at 50,000×g for 20 minutes. The supernatant was discarded and the membranes were washed one more time with cold 50 mM Tris pH 8.0 containing cOmplete Mini, EDTA-free Protease Inhibitor Cocktail Tablets (Roche, 1 tablet per 50 mL buffer). The membranes were centrifuged once more at 50,000× for 20 minutes, and then resuspended in a variable volume of cold 50 mM Tris pH 8.0 with the same protease inhibitor cocktail. Protein content was assessed by DC protein assay (Bio-Rad) according to manufacturer's instructions. Membranes were aliquoted, flash frozen, and stored at −80° C. until use in the radioligand binding experiments described below.
1.8 μM (+)SKF-10,047 was included to block 1l receptor sites in all MCF-7 membranes binding assays and in Sf9 membranes when testing TMEM97 ligands. Reactions were incubated for 90 minutes at 37° C., and were then terminated by filtration through a glass fiber filter using a Brandel cell harvester. Glass fiber filters were soaked in 0.3% polyethylenimine for at least 30 minutes at room temperature prior to harvesting. All reactions were performed in triplicate using a 96-well block. After the membranes were transferred to the filters and washed, the filters were soaked in 5 mL Cytoscint scintillation fluid overnight and radioactivity was measured using a Beckman Coulter LS 6500 scintillation counter. Data were analyzed using software from Graphpad Prism. Ki values were computed directly without the use of the Cheng-Prusoff correction using the Graphpad Prism software.

Series [5] has as its target T3, PGRMC1 (Homo sapiens, UniProt O00264).
T3 construct: mCardinal (behind the 2A skip peptide, reporter of transfection) (C, cleaved yes); expressed in transfected cells
Nature of the series: single-point ^3H DTG binding, HEK293 cells overexpressing PGRMC1. The settings on record: 10 nM ^3H DTG. Here is the method:
Eight selected hits from LC-MS/MS were cloned into a pTARGET vector (Promega), followed by a porcine teschovirus-1 2A skip peptide ([…] (SEQ ID NO: 3)) and by the fluorescent protein mCardinal40 to assess transfection efficiency. Plasmids were transfected into Expi293 cells (Thermo Fisher) according to manufacturer's instructions. After 36 hours, expression of each target protein was confirmed by flow cytometry analysis of mCardinal fluorescence levels. Receptor point mutants were generated by site-directed mutagenesis using KAPA polymerase (KAPA Biosystems), and resulting constructs were expressed in Expi293 cells as described above.
Membranes were prepared from PC-12, MCF-7, Sf9, or Expi293 cells. In brief, adherent cells were washed with ice cold PBS or HBS and harvested with a cell scraper, while suspension cells were simply pelleted. Cell pellets were suspended in 20 mM HEPES pH 7.5, 2 mM magnesium chloride, and 1:100,000 (v:v) benzonase nuclease (Sigma Aldrich) and supplemented with cOmplete Mini, EDTA-free Protease Inhibitor Cocktail Tablets (Roche). […] Protein content was assessed by DC protein assay (Bio-Rad) according to manufacturer's instructions. […]
Membrane radioligand binding assays were performed as described 41 with slight modifications. […] Radioactivity was measured by liquid scintillation counting.

T2 sequence (Q5BJF2 whole entry): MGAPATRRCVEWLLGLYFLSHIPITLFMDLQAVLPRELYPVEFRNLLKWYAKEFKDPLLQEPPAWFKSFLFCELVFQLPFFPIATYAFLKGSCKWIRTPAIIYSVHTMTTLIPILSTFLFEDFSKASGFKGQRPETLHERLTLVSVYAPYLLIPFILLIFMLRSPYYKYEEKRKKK
Chain of sigma-2 receptor (Homo sapiens, UniProt Q5BJF2) (Q5BJF2 whole entry, species assumed): as the sequence (Q5BJF2 whole entry) above
T3 sequence (O00264 whole entry, species assumed): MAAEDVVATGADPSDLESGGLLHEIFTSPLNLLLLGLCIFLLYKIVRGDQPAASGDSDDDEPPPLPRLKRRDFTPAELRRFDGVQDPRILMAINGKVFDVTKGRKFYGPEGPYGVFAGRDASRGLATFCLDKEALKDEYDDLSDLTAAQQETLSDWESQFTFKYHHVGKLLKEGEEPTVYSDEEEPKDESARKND

Turning to “siRNA: siRNA against Rattus norvegicus Tmem97 mRNA; sense strand 5′-CAACCUGUUGCGGUGGUACUCUAAG-3′ (SEQ ID NO: 4) (antisense CUUAGAGUACCACCGCAACAGGUUG; chemistry not given here)”, in series [1], the “reduction in sigma-2 expression levels by saturating ^3H DTG binding” value is on record as “near identical reduction”. In addition, the “reduction of Tmem97 mRNA expression” value in series [2] was ~60%. Regarding `C=CCN(C)CCCCCCOc1ccc(C(=O)c2ccc(Br)cc2)c(F)c1` [Ro 48-8071, (4-Bromophenyl)-[2-fluoro-4-[6-[methyl(prop-2-enyl)amino]hexoxy]phenyl]methanone], the “binding affinity in MCF-7 cell membranes compared with Sf9 membranes overexpressing TMEM97” value in series [3] is on record as “identical in both”. For the same molecule, in series [4], the “affinity of the ligand for TMEM97 compared with previously reported affinities” value is listed as “essentially identical to previously reported affinities”. On to (+)-SKF-10,047, for which the “affinity of the ligand for TMEM97 compared with previously reported affinities” value in series [4] was “essentially identical to previously report sigma-2 receptor binding affinities; also recorded: essentially identical to previously reported affinities”.

`O=C(CCCN1CCC(O)(c2ccc(Cl)cc2)CC1)c1ccc(F)cc1` [haloperidol]: in series [4], the “affinity of the ligand for TMEM97 compared with previously reported affinities” value was “essentially identical to previously report sigma-2 receptor binding affinities; also recorded: essentially identical to previously reported affinities”.

Take `COc1cc2c(cc1OC)CN(CCc1ccc(NC(=O)c3cccc4c(=O)c5cccc(OC)c5[nH]c34)cc1)CC2` [Elacridar]: in series [3], the “binding affinity in MCF-7 cell membranes compared with Sf9 membranes overexpressing TMEM97” value is listed as “identical in both”. Further, the “affinity of the ligand for TMEM97 compared with previously reported affinities” value in series [4] is reported as “essentially identical to previously reported affinities”. For the molecule `CC(C)=CCN1CCC2(C)c3cc(O)ccc3CC1C2C` (single isomer, unassigned; (+)) [(+)-pentazocine], the “affinity of the ligand for TMEM97 compared with previously reported affinities” value in series [4] was “essentially identical to previously report sigma-2 receptor binding affinities; also recorded: essentially identical to previously reported affinities”. Turning to `Cc1ccccc1NC(=N)Nc1ccccc1C` [^3H DTG, ^3H 1,3-di-o-tolylguanidine], the “^3H DTG binding” value in series [5] is listed as “did not lead to increased”.

With `COc1cccc2c1CCCC2CCCN1CCN(C2CCCCC2)CC1` (centres unmarked) [PB-28], the “affinity of the ligand for TMEM97 compared with previously reported affinities” value in series [4] was “essentially identical to previously report sigma-2 receptor binding affinities; also recorded: essentially identical to previously reported affinities”.
